Test results as given in the kinase profiling compilation of Christmann-Franck et al. (2016).

Key:
Experiment in all cases: radiometric filter-binding kinase assay, Kinase HotSpot
Conditions in all cases: compound 0.5 µM; ATP 10 µM
CHUK (human) = CHUK (human) (UniProt O15111)
STK39 (human) = STK39 (human) (UniProt Q9UEW8)
CAMK1 (human) = CAMK1 (human) (UniProt Q14012)
DYRK1A (human) = DYRK1A (human) (UniProt Q13627)
PLK2 (human) = PLK2 (human) (UniProt Q9NYY3)
PAK3 (human) = PAK3 (human) (UniProt O75914)
MKNK2 (human) = MKNK2 (human) (UniProt Q9HBH9)
RPS6KA4 KD2 (human) = RPS6KA4 KD2 (human) (UniProt O75676)
MLTK (human) = MLTK (human) (UniProt Q9NYL2)
MAP3K7 TAB1 (human) = MAP3K7 TAB1 (human) (UniProt O43318+Q15750)
CLK2 (human) = CLK2 (human) (UniProt P49760)
VRK1 (human) = VRK1 (human) (UniProt Q99986)
PTK6 (human) = PTK6 (human) (UniProt Q13882)
Chain of PTK6 (human) (Q13882 whole entry, looked up): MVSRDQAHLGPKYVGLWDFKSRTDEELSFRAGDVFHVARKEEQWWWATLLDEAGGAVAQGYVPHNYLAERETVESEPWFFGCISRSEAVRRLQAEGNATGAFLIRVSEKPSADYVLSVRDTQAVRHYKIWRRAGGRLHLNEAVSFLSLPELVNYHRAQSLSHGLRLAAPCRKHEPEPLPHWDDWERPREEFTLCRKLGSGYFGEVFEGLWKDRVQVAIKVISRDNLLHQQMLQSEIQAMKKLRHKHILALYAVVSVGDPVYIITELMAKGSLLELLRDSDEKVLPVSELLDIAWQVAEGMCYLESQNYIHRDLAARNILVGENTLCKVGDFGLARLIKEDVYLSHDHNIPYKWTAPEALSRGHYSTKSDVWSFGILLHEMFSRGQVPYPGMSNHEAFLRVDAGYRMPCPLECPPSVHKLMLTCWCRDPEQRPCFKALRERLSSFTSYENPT

TXK (human) = TXK (human) (UniProt P42681)
MAPK1 (human) = MAPK1 (human) (UniProt P28482)
Chain of MAPK1 (human) (P28482 whole entry, looked up): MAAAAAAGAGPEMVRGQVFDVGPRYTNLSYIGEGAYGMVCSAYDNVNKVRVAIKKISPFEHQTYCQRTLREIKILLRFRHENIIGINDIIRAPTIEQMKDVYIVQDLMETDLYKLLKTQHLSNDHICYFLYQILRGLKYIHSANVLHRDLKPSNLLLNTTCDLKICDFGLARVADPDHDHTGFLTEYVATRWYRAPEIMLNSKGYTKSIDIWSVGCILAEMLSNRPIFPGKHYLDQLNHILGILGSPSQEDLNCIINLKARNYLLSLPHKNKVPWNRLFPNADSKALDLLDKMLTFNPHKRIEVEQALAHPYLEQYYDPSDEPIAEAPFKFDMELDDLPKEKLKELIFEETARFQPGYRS

TTK (human) = TTK (human) (UniProt P33981)
MAP3K11 (human) = MAP3K11 (human) (UniProt Q16584)
TAOK2 (human) = TAOK2 (human) (UniProt Q9UL54)
EPHB2 (human) = EPHB2 (human) (UniProt P29323)
CLK3 (human) = CLK3 (human) (UniProt P49761)
Chain of CLK3 (human) (P49761 whole entry, looked up): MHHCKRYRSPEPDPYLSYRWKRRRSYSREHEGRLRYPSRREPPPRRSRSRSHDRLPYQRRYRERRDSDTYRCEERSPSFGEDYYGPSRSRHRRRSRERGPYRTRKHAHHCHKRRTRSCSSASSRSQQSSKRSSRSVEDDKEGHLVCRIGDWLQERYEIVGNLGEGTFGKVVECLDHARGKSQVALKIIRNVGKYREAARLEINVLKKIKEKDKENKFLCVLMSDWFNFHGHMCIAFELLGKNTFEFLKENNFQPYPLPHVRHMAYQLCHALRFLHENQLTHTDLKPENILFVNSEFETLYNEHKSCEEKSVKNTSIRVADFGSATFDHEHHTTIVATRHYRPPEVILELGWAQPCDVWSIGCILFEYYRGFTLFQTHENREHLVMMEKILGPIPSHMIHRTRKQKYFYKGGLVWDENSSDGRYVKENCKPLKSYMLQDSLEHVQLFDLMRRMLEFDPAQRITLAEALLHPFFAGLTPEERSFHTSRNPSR

NEK4 (human) = NEK4 (human) (UniProt P51957)
NTRK2 (human) = NTRK2 (human) (UniProt Q16620)
CSNK1G1 (human) = CSNK1G1 (human) (UniProt Q9HCP0)
ALK (human) = ALK (human) (UniProt Q9UM73)
ERBB4 (human) = ERBB4 (human) (UniProt Q15303)
PAK2 (human) = PAK2 (human) (UniProt Q13177)
Chain of PAK2 (human) (Q13177 whole entry, looked up): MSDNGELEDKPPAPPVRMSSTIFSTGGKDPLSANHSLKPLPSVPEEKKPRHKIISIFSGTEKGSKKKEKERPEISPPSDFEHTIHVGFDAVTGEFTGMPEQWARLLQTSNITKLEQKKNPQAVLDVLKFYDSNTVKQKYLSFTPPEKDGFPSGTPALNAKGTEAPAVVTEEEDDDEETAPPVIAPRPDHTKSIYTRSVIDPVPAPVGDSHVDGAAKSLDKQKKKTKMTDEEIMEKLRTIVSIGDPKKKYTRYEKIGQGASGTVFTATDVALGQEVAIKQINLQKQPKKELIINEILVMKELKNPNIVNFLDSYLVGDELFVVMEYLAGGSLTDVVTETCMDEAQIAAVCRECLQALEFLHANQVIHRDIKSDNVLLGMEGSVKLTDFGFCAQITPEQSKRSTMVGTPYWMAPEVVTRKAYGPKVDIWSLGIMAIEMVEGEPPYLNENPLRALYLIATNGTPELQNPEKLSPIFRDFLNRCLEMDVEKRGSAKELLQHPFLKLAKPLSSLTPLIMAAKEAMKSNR

HIPK1 (human) = HIPK1 (human) (UniProt Q86Z02)
PRKX (human) = PRKX (human) (UniProt P51817)
JAK2 JH1 JH2 (human) = JAK2 JH1 JH2 (human) (UniProt O60674)
JAK3 JH1 JH2 (human) = JAK3 JH1 JH2 (human) (UniProt P52333)
DYRK4 (human) = DYRK4 (human) (UniProt Q9NR20)
PRKD2 (human) = PRKD2 (human) (UniProt Q9BZL6)
LRRK2 (human) = LRRK2 (human) (UniProt Q5S007)
TBK1 (human) = TBK1 (human) (UniProt Q9UHD2)
PDPK1 (human) = PDPK1 (human) (UniProt O15530)
MAP2K1 (human) = MAP2K1 (human) (UniProt Q02750)
Chain of MAP2K1 (human) (Q02750 whole entry, looked up): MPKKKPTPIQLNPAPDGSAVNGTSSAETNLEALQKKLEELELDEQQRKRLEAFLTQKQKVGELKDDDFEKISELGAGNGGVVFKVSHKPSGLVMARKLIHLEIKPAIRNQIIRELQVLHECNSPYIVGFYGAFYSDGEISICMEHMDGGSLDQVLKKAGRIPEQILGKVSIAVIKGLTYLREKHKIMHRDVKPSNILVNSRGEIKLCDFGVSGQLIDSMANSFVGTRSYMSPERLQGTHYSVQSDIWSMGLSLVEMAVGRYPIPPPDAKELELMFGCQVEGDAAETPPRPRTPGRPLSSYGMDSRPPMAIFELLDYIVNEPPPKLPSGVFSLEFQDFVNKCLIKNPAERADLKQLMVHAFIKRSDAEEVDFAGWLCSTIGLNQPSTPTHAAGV

MARK3 (human) = MARK3 (human) (UniProt P27448)
SRPK1 (human) = SRPK1 (human) (UniProt Q96SB4)
Chain of SRPK1 (human) (Q96SB4 whole entry, looked up): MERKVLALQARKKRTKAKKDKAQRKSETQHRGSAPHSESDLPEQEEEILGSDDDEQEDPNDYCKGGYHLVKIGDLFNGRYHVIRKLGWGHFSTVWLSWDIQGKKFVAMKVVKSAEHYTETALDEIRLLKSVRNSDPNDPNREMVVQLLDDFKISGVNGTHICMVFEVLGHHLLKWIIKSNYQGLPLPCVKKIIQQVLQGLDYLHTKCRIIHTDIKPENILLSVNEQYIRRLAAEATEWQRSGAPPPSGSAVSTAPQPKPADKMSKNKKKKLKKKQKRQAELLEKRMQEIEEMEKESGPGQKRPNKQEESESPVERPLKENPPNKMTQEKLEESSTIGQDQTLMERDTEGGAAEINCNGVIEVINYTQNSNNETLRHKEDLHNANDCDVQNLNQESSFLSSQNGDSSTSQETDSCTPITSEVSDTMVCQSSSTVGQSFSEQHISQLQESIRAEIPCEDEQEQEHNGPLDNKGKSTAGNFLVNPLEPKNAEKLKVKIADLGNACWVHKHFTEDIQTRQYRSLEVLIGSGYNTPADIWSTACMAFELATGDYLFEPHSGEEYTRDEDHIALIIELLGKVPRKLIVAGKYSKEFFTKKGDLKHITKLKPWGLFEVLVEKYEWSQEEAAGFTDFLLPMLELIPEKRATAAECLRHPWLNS

ERBB2 (human) = ERBB2 (human) (UniProt P04626)
Chain of ERBB2 (human) (P04626 whole entry, looked up): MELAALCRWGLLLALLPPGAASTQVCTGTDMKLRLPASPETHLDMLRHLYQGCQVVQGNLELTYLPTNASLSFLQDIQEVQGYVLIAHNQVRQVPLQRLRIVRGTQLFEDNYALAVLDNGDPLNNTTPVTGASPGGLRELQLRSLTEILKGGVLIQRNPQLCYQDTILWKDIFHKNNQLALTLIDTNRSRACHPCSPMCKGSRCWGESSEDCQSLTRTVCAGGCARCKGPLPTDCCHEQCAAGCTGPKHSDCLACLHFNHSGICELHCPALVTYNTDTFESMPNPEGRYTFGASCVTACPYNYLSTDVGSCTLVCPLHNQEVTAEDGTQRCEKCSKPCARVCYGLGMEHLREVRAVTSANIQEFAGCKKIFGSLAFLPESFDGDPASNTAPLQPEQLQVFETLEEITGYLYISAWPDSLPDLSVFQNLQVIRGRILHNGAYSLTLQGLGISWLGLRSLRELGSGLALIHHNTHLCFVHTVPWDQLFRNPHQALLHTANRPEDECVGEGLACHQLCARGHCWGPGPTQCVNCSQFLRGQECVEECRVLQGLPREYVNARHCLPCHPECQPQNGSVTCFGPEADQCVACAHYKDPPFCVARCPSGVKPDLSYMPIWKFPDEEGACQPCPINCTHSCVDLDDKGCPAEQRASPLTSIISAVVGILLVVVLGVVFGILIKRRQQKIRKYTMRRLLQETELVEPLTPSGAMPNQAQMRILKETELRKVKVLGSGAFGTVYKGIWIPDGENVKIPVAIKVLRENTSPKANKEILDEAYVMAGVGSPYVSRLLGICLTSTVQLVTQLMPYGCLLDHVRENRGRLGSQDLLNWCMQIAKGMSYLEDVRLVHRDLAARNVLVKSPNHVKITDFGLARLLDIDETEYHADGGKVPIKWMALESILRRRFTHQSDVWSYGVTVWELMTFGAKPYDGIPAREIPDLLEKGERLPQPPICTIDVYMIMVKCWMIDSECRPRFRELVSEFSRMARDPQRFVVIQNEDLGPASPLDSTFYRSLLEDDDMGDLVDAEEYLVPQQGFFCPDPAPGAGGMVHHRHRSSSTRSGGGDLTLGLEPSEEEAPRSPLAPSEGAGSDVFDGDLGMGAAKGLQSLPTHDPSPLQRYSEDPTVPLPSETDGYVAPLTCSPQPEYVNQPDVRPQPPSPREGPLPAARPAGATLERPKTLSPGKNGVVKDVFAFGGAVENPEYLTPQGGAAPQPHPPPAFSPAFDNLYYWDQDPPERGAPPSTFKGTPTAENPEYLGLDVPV

IRAK1 (human) = IRAK1 (human) (UniProt P51617)
CLK1 (human) = CLK1 (human) (UniProt P49759)
CDK4 CCND1 (human) = CDK4 CCND1 (human) (UniProt P24385+P11802)

Chain of CHUK (human) (O15111 whole entry, looked up): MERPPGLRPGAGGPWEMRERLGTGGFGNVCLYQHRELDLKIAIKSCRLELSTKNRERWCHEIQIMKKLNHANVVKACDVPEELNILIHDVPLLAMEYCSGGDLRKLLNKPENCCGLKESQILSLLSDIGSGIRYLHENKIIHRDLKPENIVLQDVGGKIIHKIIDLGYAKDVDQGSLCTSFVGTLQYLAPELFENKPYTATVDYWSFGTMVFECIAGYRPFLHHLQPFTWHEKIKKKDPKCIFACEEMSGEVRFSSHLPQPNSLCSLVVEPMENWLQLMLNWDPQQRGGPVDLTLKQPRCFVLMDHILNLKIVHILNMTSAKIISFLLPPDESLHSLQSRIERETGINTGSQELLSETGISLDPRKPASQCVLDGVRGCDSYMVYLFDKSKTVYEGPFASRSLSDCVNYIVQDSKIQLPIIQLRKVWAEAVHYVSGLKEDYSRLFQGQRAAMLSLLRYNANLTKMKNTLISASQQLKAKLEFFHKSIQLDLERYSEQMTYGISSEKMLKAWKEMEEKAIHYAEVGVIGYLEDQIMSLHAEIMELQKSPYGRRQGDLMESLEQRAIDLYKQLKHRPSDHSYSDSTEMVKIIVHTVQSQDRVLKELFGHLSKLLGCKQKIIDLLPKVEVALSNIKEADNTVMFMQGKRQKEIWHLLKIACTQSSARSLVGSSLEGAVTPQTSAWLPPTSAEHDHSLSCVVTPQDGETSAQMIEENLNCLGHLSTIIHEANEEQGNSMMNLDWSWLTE

`CNc1cc2c(Nc3cccc(Br)c3)ncnc2cn1` was tested, and the residual activity (CHUK (human)) was 99%, the residual activity (STK39 (human)) was 94% and the residual activity (CAMK1 (human)) was 92.3%. For the same molecule, the residual activity (DYRK1A (human)) was 95.6%, the residual activity (PLK2 (human)) was 97.5% and the residual activity (PAK3 (human)) was 98.8%. For the same molecule, the residual activity (MKNK2 (human)) was 32.3%, the residual activity (RPS6KA4 KD2 (human)) was 109% and the residual activity (MLTK (human)) was 82.3%. For the same molecule, the residual activity (MAP3K7 TAB1 (human)) was 94.9%, the residual activity (CLK2 (human)) was 88.3% and the residual activity (VRK1 (human)) was 90.2%. It also gave a residual activity (PTK6 (human)) of 54.4%, a residual activity (TXK (human)) of 79.9% and a residual activity (MAPK1 (human)) of 88.6%. It also gave a residual activity (TTK (human)) of 100%, a residual activity (MAP3K11 (human)) of 96.9% and a residual activity (TAOK2 (human)) of 95.3%. The residual activity (EPHB2 (human)) was 91.2%, the residual activity (CLK3 (human)) was 87.6% and the residual activity (NEK4 (human)) was 94.9%. For the same molecule, the residual activity (NTRK2 (human)) was 94.3%, the residual activity (CSNK1G1 (human)) was 81.7% and the residual activity (ALK (human)) was 82%. The residual activity (ERBB4 (human)) was 58.6%, the residual activity (PAK2 (human)) was 92.7% and the residual activity (HIPK1 (human)) was 96.5%. The residual activity (PRKX (human)) was 97.1%, the residual activity (JAK2 JH1 JH2 (human)) was 82.1% and the residual activity (JAK3 JH1 JH2 (human)) was 103%. It also gave a residual activity (DYRK4 (human)) of 87.5%, a residual activity (PRKD2 (human)) of 86.4% and a residual activity (LRRK2 (human)) of 67%. It also gave a residual activity (TBK1 (human)) of 94.5%, a residual activity (PDPK1 (human)) of 97.7% and a residual activity (MAP2K1 (human)) of 74.6%. The residual activity (MARK3 (human)) was 82.2%, the residual activity (SRPK1 (human)) was 90.7% and the residual activity (ERBB2 (human)) was 28.9%. The residual activity (IRAK1 (human)) was 85.2%, the residual activity (CLK1 (human)) was 106% and the residual activity (CDK4 CCND1 (human)) was 104%.

In the case of `COc1ccc2c(c[n+](C)c3c4cc5c(cc4ccc23)OCO5)c1OC`, the residual activity (CHUK (human)) is reported as 97.5%, the residual activity (STK39 (human)) is reported as 90.8% and the residual activity (CAMK1 (human)) is reported as 81.4%. For the same molecule, the residual activity (DYRK1A (human)) was 103%, the residual activity (PLK2 (human)) was 97.6% and the residual activity (PAK3 (human)) was 96.6%. The residual activity (MKNK2 (human)) was 107%, the residual activity (RPS6KA4 KD2 (human)) was 88.3% and the residual activity (MLTK (human)) was 94.7%. It also gave a residual activity (MAP3K7 TAB1 (human)) of 100%, a residual activity (CLK2 (human)) of 90.6% and a residual activity (VRK1 (human)) of 106%. It also gave a residual activity (PTK6 (human)) of 94.4%, a residual activity (TXK (human)) of 100% and a residual activity (MAPK1 (human)) of 101%. The residual activity (TTK (human)) was 101%, the residual activity (MAP3K11 (human)) was 95% and the residual activity (TAOK2 (human)) was 95%. For the same molecule, the residual activity (EPHB2 (human)) was 97.1%, the residual activity (CLK3 (human)) was 95.2% and the residual activity (NEK4 (human)) was 96.6%. It also gave a residual activity (NTRK2 (human)) of 104%, a residual activity (CSNK1G1 (human)) of 106% and a residual activity (ALK (human)) of 105%. For the same molecule, the residual activity (ERBB4 (human)) was 99.9%, the residual activity (PAK2 (human)) was 101% and the residual activity (HIPK1 (human)) was 100%. It also gave a residual activity (PRKX (human)) of 95.1%, a residual activity (JAK2 JH1 JH2 (human)) of 102% and a residual activity (JAK3 JH1 JH2 (human)) of 101%. For the same molecule, the residual activity (DYRK4 (human)) was 95.1%, the residual activity (PRKD2 (human)) was 90.1% and the residual activity (LRRK2 (human)) was 104%. It also gave a residual activity (TBK1 (human)) of 96.2%, a residual activity (PDPK1 (human)) of 98.2% and a residual activity (MAP2K1 (human)) of 97.8%. The residual activity (MARK3 (human)) was 98.7%, the residual activity (SRPK1 (human)) was 95.3% and the residual activity (ERBB2 (human)) was 101%. The residual activity (IRAK1 (human)) was 103%, the residual activity (CLK1 (human)) was 101% and the residual activity (CDK4 CCND1 (human)) was 87.5%.

Work on `CCC(=O)Nc1ccc2ncnc(Nc3cccc(Br)c3)c2c1` yielded a residual activity (CHUK (human)) of 99.3%, a residual activity (STK39 (human)) of 96.1% and a residual activity (CAMK1 (human)) of 88.9%. For the same molecule, the residual activity (DYRK1A (human)) was 89.2%, the residual activity (PLK2 (human)) was 108% and the residual activity (PAK3 (human)) was 105%. It also gave a residual activity (MKNK2 (human)) of 55.6%, a residual activity (RPS6KA4 KD2 (human)) of 106% and a residual activity (MLTK (human)) of 96%. The residual activity (MAP3K7 TAB1 (human)) was 94%, the residual activity (CLK2 (human)) was 101% and the residual activity (VRK1 (human)) was 94.4%. The residual activity (PTK6 (human)) was 57.2%, the residual activity (TXK (human)) was 90.5% and the residual activity (MAPK1 (human)) was 77.7%. The residual activity (TTK (human)) was 113%, the residual activity (MAP3K11 (human)) was 97.1% and the residual activity (TAOK2 (human)) was 91.4%. For the same molecule, the residual activity (EPHB2 (human)) was 95.1%, the residual activity (CLK3 (human)) was 99.3% and the residual activity (NEK4 (human)) was 94.7%. It also gave a residual activity (NTRK2 (human)) of 77.1%, a residual activity (CSNK1G1 (human)) of 98.6% and a residual activity (ALK (human)) of 83.1%. It also gave a residual activity (ERBB4 (human)) of 82.3%, a residual activity (PAK2 (human)) of 101% and a residual activity (HIPK1 (human)) of 104%. For the same molecule, the residual activity (PRKX (human)) was 95.7%, the residual activity (JAK2 JH1 JH2 (human)) was 103% and the residual activity (JAK3 JH1 JH2 (human)) was 98.3%. For the same molecule, the residual activity (DYRK4 (human)) was 113%, the residual activity (PRKD2 (human)) was 85.1% and the residual activity (LRRK2 (human)) was 92.4%. It also gave a residual activity (TBK1 (human)) of 95.6%, a residual activity (PDPK1 (human)) of 107% and a residual activity (MAP2K1 (human)) of 105%. For the same molecule, the residual activity (MARK3 (human)) was 86.1%, the residual activity (SRPK1 (human)) was 97% and the residual activity (ERBB2 (human)) was 34%. It also gave a residual activity (IRAK1 (human)) of 92.7%, a residual activity (CLK1 (human)) of 84.5% and a residual activity (CDK4 CCND1 (human)) of 101%.
